This note sets out measurements from patent US10793568B2, “Hormone receptor modulators for treating metabolic conditions and disorders” (ARDELYX, INC., priority 2016, dated 2020).

By pEC50 is commonly meant −log10 of the EC50, conventionally taken in molar units. As usually defined, the EC50 is the midpoint of the concentration-response curve.

Each structure is given as a SMILES string. Where only a bound is given, the exact number is not on record here.

Assay [1] deals with ligand binding domain of human FXR (Homo sapiens (Human), UniProt Q96RI1). As to the kind of experiment: FXR ligand binding assay (LanthaScreen TR-FRET, SRC2-2 peptide recruitment). To be noted: for pEC50: -log EC50, concentration required to produce 50% activation; for Emax: extent of activation relative to GW4064, read-out: % Efficacy. (In general: TR-FRET usually uses a lanthanide donor and a delayed reading to cut background.)
Sequence of ligand binding domain of human FXR (Q96RI1 262-486): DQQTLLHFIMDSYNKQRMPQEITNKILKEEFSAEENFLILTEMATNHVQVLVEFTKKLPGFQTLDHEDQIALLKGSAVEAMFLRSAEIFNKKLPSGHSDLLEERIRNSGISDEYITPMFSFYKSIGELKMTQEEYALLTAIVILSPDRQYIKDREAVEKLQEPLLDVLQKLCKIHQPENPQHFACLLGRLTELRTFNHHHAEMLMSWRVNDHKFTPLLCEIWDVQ

Assay [2] deals with human Farnesoid X receptor ligand-binding domain/Gal4 DNA binding domain chimera (Homo sapiens (Human), UniProt Q96RI1). Briefly: Cell-based assay of FXR activation (FXR-UAS-bla HEK 293T beta-lactamase reporter). To be noted: cellular FXR beta-lactamase reporter assay; for Emax: HEK-293T, extent of activation relative to GW4064, read-out: % Efficacy; for EC50: FXR-UAS-bla HEK 293T cells, 16 h, pEC50 = -log EC50. A digest of the protocol:
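HEK 293T cells stably expressing a Gal4-fused human FXR LBD and a UAS-driven beta-lactamase reporter were incubated with serially diluted compounds for 16 h at 37 °C in phenol red-free DMEM with 2% charcoal-stripped FBS. CCF4 FRET read-out: excitation 409 nm, emission 447 nm. pEC50 comes from a 3-parameter logistic fit, and efficacy is given as % of GW4064.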
A general note: A reporter such as luciferase makes a cellular process visible.

Sequence of human Farnesoid X receptor ligand-binding domain/Gal4 DNA binding domain chimera (Q96RI1 262-486, change not shown): as the sequence (Q96RI1 262-486) above
Sequence of human Farnesoid X receptor ligand-binding domain/Gal4 DNA binding domain chimera (P04386 1-147 partner): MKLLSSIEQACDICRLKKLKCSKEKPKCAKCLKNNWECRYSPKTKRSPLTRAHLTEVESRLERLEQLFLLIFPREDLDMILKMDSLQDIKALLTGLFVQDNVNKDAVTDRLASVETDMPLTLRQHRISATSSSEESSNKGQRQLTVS

As for `O=C(O)c1cc(F)c2nc(N3C[C@H]4C[C@@H]3C[C@@H]4OC(=O)c3c(-c4c(Cl)cccc4Cl)noc3C3CC3)sc2c1` [Compound I-38, 2-[(1R,4R,5S)-5-[5-cyclopropyl-3-(2,6-dichlorophenyl)-1,2-oxazole-4-carbonyloxy]-2-azabicyclo[2.2.1]heptan-2-yl]-4-fluoro-1,3-benzothiazole-6-carboxylic Acid], in assay [1], the pEC50 is reported as 6.3 and the Emax worked out at 56%. For the same molecule, in assay [2], the Emax came to 96% and the EC50 was 200 nM.

With `O=C(O)CCCc1ccc(N2C[C@@H]3C[C@H]2C[C@H]3OCc2c(-c3c(Cl)cccc3Cl)noc2C2CC2)cc1` [Compound I-148, 4-{4-[(1S,4S,5R)-5-{[5-cyclopropyl-3-(2,6-dichlorophenyl)-1,2-oxazol-4-yl]methoxy}-2-azabicyclo[2.2.1]heptan-2-yl]phenyl}butanoic Acid], in assay [1], the pEC50 came out at 7.8 and the Emax came out at 136%. Besides, in assay [2], the Emax worked out at 117% and the EC50 was 20 nM.

For `O=C(O)c1ccc2nc(N3C[C@@H]4C[C@H]3C[C@H]4OC(=O)c3c(-c4c(Cl)cccc4Cl)noc3C3CC3)sc2c1` [Compound I-2, 2-[(1S,4S,5R)-5-[5-cyclopropyl-3-(2,6-dichlorophenyl)-1,2-oxazole-4-carbonyloxy]-2-azabicyclo[2.2.1]heptan-2-yl]-1,3-benzothiazole-6-carboxylic acid], in assay [1], the pEC50 was 7.3 and the Emax stood at 138%. Moreover, in assay [2], the Emax was found to be 120% and the EC50 is 10 nM.

With `Cc1cccc(Cl)c1-c1noc(C2CC2)c1CO[C@@H]1C[C@@H]2C[C@H]1CN2c1ccc(C(=O)O)cc1F` [Compound I-113, 4-[(1S,4S,5R)-5-[[3-(2-chloro-6-methylphenyl)-5-cyclopropyl-1,2-oxazol-4-yl]methoxy]-2-azabicyclo[2.2.1]heptan-2-yl]-3-fluorobenzoic acid], in assay [1], the pEC50 is on record as 8.8 and the Emax worked out at 126%. Further, in assay [2], the Emax was 101% and the EC50 is 0.794 nM.

As for `O=C(NCc1nn[nH]n1)c1ccc(N2C[C@@H]3C[C@H]2C[C@H]3OCc2c(-c3c(Cl)cccc3Cl)noc2C2CC2)cc1` [Compound I-164, 4-[(1S,4S,5R)-5-{[5-cyclopropyl-3-(2,6-dichlorophenyl)-1,2-oxazol-4-yl]methoxy}-2-azabicyclo[2.2.1]heptan-2-yl]-N-(2H-1,2,3,4-tetrazol-5-ylmethyl)benzamide], in assay [1], the pEC50 is 9.7 and the Emax was found to be 148%. For the same molecule, in assay [2], the Emax was determined as 118% and a half-maximal effect (EC50) was put at 79.4 nM.

As to `O=C(O)c1ccc(N2C[C@@H]3C[C@H]2C[C@H]3OCc2c(-c3c(Cl)cccc3Cl)noc2C2(F)CC2)c(F)c1` [Compound I-57, 4-[(1S,4S,5R)-5-{[3-(2,6-dichlorophenyl)-5-(1-fluorocyclopropyl)-1,2-oxazol-4-yl]methoxy}-2-azabicyclo[2.2.1]heptan-2-yl]-3-fluorobenzoic Acid], in assay [1], the pEC50 stood at 7.9 and the Emax came to 146%. In addition, in assay [2], the Emax turned out to be 109% and it took 1 nM to reach a half-maximal effect (EC50).

On to `O=C(O)C1CCc2cc(N3C(=O)[C@@H]4C[C@H]3C[C@H]4OCc3c(-c4c(Cl)cccc4Cl)noc3C3CC3)ccc21` (stereo partly drawn) [Compound I-312, 5-[(1S,4R,5R)-5-{[5-cyclopropyl-3-(2,6-dichlorophenyl)-1,2-oxazol-4-yl]methoxy}-3-oxo-2-azabicyclo[2.2.1]heptan-2-yl]-2,3-dihydro-1H-indene-1-carboxylic Acid], for which, in assay [1], the pEC50 is given as 7 and the Emax turned out to be 149%. In addition, in assay [2], the Emax was 134% and the EC50 is 20 nM.

Take `O=C(NS(=O)(=O)CCCO)c1ccc(N2C[C@@H]3C[C@H]2C[C@H]3OCc2c(-c3c(Cl)cccc3Cl)noc2C2CC2)cc1` [Compound I-215, 4-[(1S,4S,5R)-5-{[5-cyclopropyl-3-(2,6-dichlorophenyl)-1,2-oxazol-4-yl]methoxy}-2-azabicyclo[2.2.1]heptan-2-yl]-N-(3-hydroxypropanesulfonyl)benzamide]: in assay [1], the pEC50 was found to be 8.6 and the Emax came out at 142%. Also, in assay [2], the Emax worked out at 107% and the half-maximal effective concentration (EC50) was 1.58 nM.

Take `O=C(NS(=O)(=O)CC1CCOCC1)c1ccc(N2C(=O)[C@@H]3C[C@H]2C[C@H]3OCc2c(-c3c(Cl)cccc3Cl)noc2C2CC2)cc1F` [Compound I-333, 4-((1S,4R,5R)-5-((5-cyclopropyl-3-(2,6-dichlorophenyl)isoxazol-4-yl)methoxy)-3-oxo-2-azabicyclo[2.2.1]heptan-2-yl)-2-fluoro-N-(((tetrahydro-2H-pyran-4-yl)methyl)sulfonyl)benzamide]: in assay [1], the pEC50 is recorded as 8.8 and the Emax was 158%. Further, in assay [2], the Emax is 112% and the EC50 was 0.501 nM.

`O=C(O)c1ccc(N2C[C@@H]3C[C@H]2C[C@H]3OCc2c(-c3c(Cl)cccc3Cl)noc2C2CC2)c(C(F)(F)F)c1` [Compound I-106, 4-((1S,4S,5R)-5-((5-cyclopropyl-3-(2,6-dichlorophenyl)isoxazol-4-yl)methoxy)-2-azabicyclo[2.2.1]heptan-2-yl)-3-(trifluoromethyl)benzoic acid]: in assay [1], the pEC50 worked out at 8.6 and the Emax amounted to 126%. Also, in assay [2], the Emax stood at 106% and the EC50 was 0.631 nM.

Turning to `O=C(O)c1cc(O[C@H]2CCOC2)c2nc(N3C(=O)[C@@H]4C[C@H]3C[C@H]4OCc3c(-c4c(Cl)cccc4Cl)noc3C3CC3)sc2c1` [Compound I-302, 2-((1S,4R,5R)-5-((5-cyclopropyl-3-(2,6-dichlorophenyl)isoxazol-4-yl)methoxy)-3-oxo-2-azabicyclo[2.2.1]heptan-2-yl)-4-(((S)-tetrahydrofuran-3-yl)oxy)benzo[d]thiazole-6-carboxylic acid], in assay [1], the pEC50 is 8.4 and the Emax stood at 106%. In addition, in assay [2], the Emax is 114% and the EC50 is 39.8 nM.

With `COc1cccc(-c2noc(C3CC3)c2CO[C@@H]2C[C@@H]3C[C@H]2CN3c2nc3c(F)cc(C(=O)O)cc3s2)c1` [Compound I-289, 2-((1S,4S,5R)-5-((5-cyclopropyl-3-(3-methoxyphenyl)isoxazol-4-yl)methoxy)-2-azabicyclo[2.2.1]heptan-2-yl)-4-fluorobenzo[d]thiazole-6-carboxylic acid], in assay [1], the negative logarithm of the EC50 (pEC50) was 6.9 and the Emax is 70%. Moreover, the concentration for a half-maximal effect (EC50) in assay [2] was less than 31.6 nM.

In the case of `O=C(O)c1cc(C2CCCC2)c2nc(N3C[C@@H]4C[C@H]3C[C@H]4OCc3c(C4CCC5(CC4)CC5)noc3C3CC3)sc2c1` [Compound I-283, 4-cyclopentyl-2-((1S,4S,5R)-5-((5-cyclopropyl-3-(spiro[2.5]octan-6-yl)isoxazol-4-yl)methoxy)-2-azabicyclo[2.2.1]heptan-2-yl)benzo[d]thiazole-6-carboxylic acid], in assay [1], the negative logarithm of the EC50 (pEC50) is 7 and the Emax worked out at 114%. Further, in assay [2], the Emax came out at 104% and it took 25.1 nM to reach a half-maximal effect (EC50).

Regarding `Cc1cccc(C)c1-c1noc(C2CC2)c1CO[C@@H]1C[C@@H]2C[C@H]1CN2c1ccc(C(=O)O)cc1F` [Compound I-116, 4-[(1S,4S,5R)-5-{[5-cyclopropyl-3-(2,6-dimethylphenyl)-1,2-oxazol-4-yl]methoxy}-2-azabicyclo[2.2.1]heptan-2-yl]-3-fluorobenzoic Acid], in assay [1], the pEC50 is reported as 8.6 and the Emax worked out at 131%. Besides, in assay [2], the Emax came out at 102% and the midpoint of the response, the EC50, lay at 3.98 nM.

For the molecule `O=C(NS(=O)(=O)c1cn[nH]c1)c1ccc(N2C[C@@H]3C[C@H]2C[C@H]3OCc2c(-c3c(Cl)cccc3Cl)noc2C2CC2)cc1` [Compound I-188, N-((1H-pyrazol-4-yl)sulfonyl)-4-((1S,4S,5R)-5-((5-cyclopropyl-3-(2,6-dichlorophenyl)isoxazol-4-yl)methoxy)-2-azabicyclo[2.2.1]heptan-2-yl)benzamide], the Emax in assay [1] was found to be 150%. In assay [2], the Emax worked out at 100% and the EC50 is 6.31 nM.

Turning to `O=C(O)c1cc(C2CCOCC2)c2nc(N3C(=O)[C@@H]4C[C@H]3C[C@H]4OCc3c(-c4c(Cl)cccc4Cl)noc3C3CC3)sc2c1` [Compound I-298, 2-((1S,4R,5R)-5-((5-cyclopropyl-3-(2,6-dichlorophenyl)isoxazol-4-yl)methoxy)-3-oxo-2-azabicyclo[2.2.1]heptan-2-yl)-4-(tetrahydro-2H-pyran-4-yl)benzo[d]thiazole-6-carboxylic acid], the Emax in assay [1] was determined as 133%. Also, in assay [2], the Emax was determined as 112% and a half-maximal effect (EC50) was put at 7.94 nM.

As for `O=C(O)c1cc(C(F)(F)F)c2nc(N3C[C@@H]4C[C@H]3C[C@H]4OCc3c(-c4c(Cl)cccc4Cl)noc3C3CC3)sc2c1` [Compound I-15, 2-[(1S,4S,5R)-5-{[5-cyclopropyl-3-(2,6-dichlorophenyl)-1,2-oxazol-4-yl]methoxy}-2-azabicyclo[2.2.1]heptan-2-yl]-4-(trifluoromethyl)-1,3-benzothiazole-6-carboxylic acid], in assay [1], the pEC50 stood at 7.8 and the Emax was 150%. In assay [2], the Emax came to 104% and it took 0.251 nM to reach a half-maximal effect (EC50).

`O=C(O)c1cc(F)c2nc(N3C[C@@H]4C[C@H]3C[C@H]4OCc3c(C4CCC5(CC4)CC5)noc3C3CC3)sc2c1` [Compound I-277, 2-[(1S,4S,5R)-5-[(5-cyclopropyl-3-{spiro[2.5]octan-6-yl}-1,2-oxazol-4-yl)methoxy]-2-azabicyclo[2.2.1]heptan-2-yl]-4-fluoro-1,3-benzothiazole-6-carboxylic Acid]: in assay [1], the pEC50 was found to be 8.1 and the Emax is 106%. Further, in assay [2], the Emax amounted to 123% and it took 158 nM to reach a half-maximal effect (EC50).
